As a reminder, the GI50 is the concentration giving 50% growth inhibition.

Data on 8 compounds can be found in ChEMBL document CHEMBL1201862, “PubChem BioAssay data set” (2004).

Test systems include 786-0; A498; BT-549; COLO 205; DU-145; HT-29; KM12; NCI-H522; OVCAR-4; OVCAR-5; OVCAR-8; SF-539; SK-OV-3; SNB-19; SNB-75; SR; SW-620; TK-10; U-251; HL-60.
What all share (assay): DTP human tumour cell line panel, 48 h

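All cell lines were grown in 96-well plates and treated with compound for 48 hours. GI50: concentration for 50% inhibition of growth.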 Activity calls are given as the source filed them. No stated cut-off is given here; in the data, active = GI50 up to about 1.1 µM and inactive = higher.

As for `COc1ccc(/C=C/C(=O)NCC(NC(=O)/C=C/c2ccc(OC)c(OC)c2)C(=O)O)cc1OC` (centres undefined), the GI50 in the assay with 786-0, in the assay with A498, with BT-549, with COLO 205, with DU-145 and with HT-29 was > 100 µM (inactive) in each case. Also, the GI50 in the assay with KM12, in the assay with NCI-H522, in the assay on OVCAR-4, in the assay on OVCAR-5, in the assay on OVCAR-8 and in the assay with SF-539 was > 100 µM (inactive) throughout. Also, the GI50 in the assay on SK-OV-3, in the assay with SNB-19, with SNB-75, in the assay with SR, with SW-620 and with TK-10 was > 100 µM (inactive) in each case. Besides, in the assay on U-251, the GI50 is > 100 µM (inactive).
For the compound `ClC1(c2ccccc2)c2ccc(Br)cc2-c2cc(Br)ccc21`, the GI50 was 16.6 µM (inactive) in the assay with 786-0; 18.8 µM (inactive) in the assay with A498; 17.2 µM (inactive) in the assay on BT-549; 17.7 µM (inactive) in the assay with COLO 205; 22.6 µM (inactive) in the assay with DU-145; 19.3 µM (inactive) in the assay with HL-60. Besides, the GI50 is 12.3 µM (inactive) with HT-29; 19.4 µM (inactive) in the assay with KM12; 14.2 µM (inactive) in the assay on NCI-H522; 14.1 µM (inactive) in the assay on OVCAR-4; 17.3 µM (inactive) with OVCAR-5; 18.2 µM (inactive) in the assay with OVCAR-8. The GI50 is 18.7 µM (inactive) in the assay on SF-539; 17.6 µM (inactive) with SK-OV-3; 16.9 µM (inactive) in the assay with SNB-19; 32.7 µM (inactive) with SR; 19.8 µM (inactive) with SW-620; 19 µM (inactive) in the assay on TK-10. The GI50 in the assay on U-251 is 17.6 µM (inactive).
As to `O=C(O)C1CCN(Cc2oc(CO)cc(=O)c2O)C1` (centres undefined), the GI50 in the assay with 786-0, in the assay on A498, in the assay on BT-549, with COLO 205, in the assay on DU-145 and in the assay with HL-60 was > 100 µM (inactive) each time. Also, the GI50 in the assay on HT-29, with KM12, in the assay with NCI-H522, with OVCAR-4, with OVCAR-5 and in the assay on OVCAR-8 was > 100 µM (inactive) in each case. The GI50 in the assay on SK-OV-3, with SNB-19, in the assay on SNB-75, with SR, with SW-620 and in the assay with TK-10 was > 100 µM (inactive) throughout. Besides, the GI50 in the assay with U-251 was > 100 µM (inactive).
As to `CC(=O)C(C(C)=O)[C@@H]1OC(C)(C)O[C@@H]1[C@H]1COC(C)(C)O1`, the GI50 with 786-0 was 32.1 µM (inactive); in the assay on A498, 93.3 µM (inactive); in the assay on BT-549, 34.9 µM (inactive); with COLO 205, 43.5 µM (inactive); in the assay with DU-145, 51.8 µM (inactive); in the assay with HL-60, 26.6 µM (inactive). Also, the GI50 in the assay on HT-29 is 32.8 µM (inactive); in the assay on KM12, 41.4 µM (inactive); in the assay on NCI-H522, 26.9 µM (inactive); in the assay on OVCAR-4 it was 51.1 µM (inactive); with OVCAR-5, 87.9 µM (inactive); in the assay with OVCAR-8 it was 40.6 µM (inactive). For the same compound, the GI50 is > 100 µM (inactive) in the assay on SF-539; 64.1 µM (inactive) with SNB-19; 38.8 µM (inactive) with SR; 36.6 µM (inactive) in the assay with SW-620; > 100 µM (inactive) in the assay with TK-10; 42.8 µM (inactive) in the assay with U-251.
On to `Cc1ccc(/C=C2\CCCCCC2=O)cc1`, for which the GI50 was > 100 µM (inactive) with 786-0; > 100 µM (inactive) with A498; > 100 µM (inactive) with BT-549; > 100 µM (inactive) in the assay with COLO 205; > 100 µM (inactive) in the assay with DU-145; < 0.01 µM (active) in the assay on HL-60. Moreover, the GI50 in the assay on HT-29, in the assay with KM12, in the assay on NCI-H522, in the assay with OVCAR-4, with OVCAR-5 and in the assay with SK-OV-3 was > 100 µM (inactive) throughout. For the same compound, the GI50 in the assay on SNB-19, in the assay with SNB-75, in the assay on SR, in the assay with SW-620, in the assay with TK-10 and in the assay with U-251 was > 100 µM (inactive) throughout.
Turning to `COc1ccc(C(=O)CC(c2ccccc2)[C@H]2C(c3ccc(OC)cc3)=Nc3c(nc(SC)n(C)c3=O)NC2c2ccccc2)cc1` (some centres undefined), the GI50 with 786-0, in the assay on A498, in the assay with BT-549, in the assay on COLO 205, with DU-145 and with HT-29 was > 100 µM (inactive) in each case. Besides, the GI50 in the assay with KM12, with NCI-H522, in the assay on OVCAR-5, in the assay with SF-539, in the assay on SK-OV-3 and in the assay with SNB-19 was > 100 µM (inactive) each time. The GI50 in the assay on SR, in the assay with SW-620, with TK-10 and with U-251 was > 100 µM (inactive) each time.
Consider `CC12CC(c3ccccc3O1)C(C(=O)Nc1ccc(F)cc1)C(=O)N2` (centres undefined), for which the GI50 in the assay with 786-0 is > 100 µM (inactive); in the assay with A498, > 100 µM (inactive); in the assay on BT-549 it was 38.5 µM (inactive); in the assay on COLO 205 it was > 100 µM (inactive); with DU-145, > 100 µM (inactive); in the assay with HL-60 it was 29.6 µM (inactive). The GI50 in the assay with HT-29 is 89.9 µM (inactive); in the assay on KM12, > 100 µM (inactive); in the assay with NCI-H522, 63.2 µM (inactive); in the assay with OVCAR-4, 51.9 µM (inactive); with OVCAR-5, > 100 µM (inactive); in the assay on OVCAR-8, 36 µM (inactive). The GI50 in the assay with SF-539 is > 100 µM (inactive); with SK-OV-3 it was > 100 µM (inactive); with SNB-19 it was > 100 µM (inactive); in the assay with SR it was 73.1 µM (inactive); in the assay on SW-620, > 100 µM (inactive); in the assay with U-251 it was > 100 µM (inactive).
Turning to `C=C(C)[C@@H]1CC[C@]2(CO)CC[C@]3(C)[C@H](CC[C@@H]4[C@@]5(C)CC[C@H](O)C(C)(C)[C@@H]5CC[C@]43C)[C@@H]12` [BETULIN], the GI50 is 13.6 µM (inactive) with 786-0; 21.5 µM (inactive) with A498; 17.6 µM (inactive) in the assay with BT-549; 84.3 µM (inactive) in the assay with DU-145; 34 µM (inactive) in the assay on HL-60; 20.6 µM (inactive) in the assay with HT-29. Moreover, the GI50 is 9.71 µM (inactive) in the assay with KM12; 20.4 µM (inactive) with NCI-H522; 55.7 µM (inactive) in the assay with OVCAR-5; 12.5 µM (inactive) in the assay with OVCAR-8; 11.7 µM (inactive) in the assay on SF-539; > 10 µM (inactive) in the assay with SNB-19. Further, the GI50 was 12.7 µM (inactive) in the assay on SNB-75; 43 µM (inactive) with SR; 20.1 µM (inactive) with SW-620; 17.1 µM (inactive) with TK-10; 11.8 µM (inactive) with U-251.
